From ChEMBL document CHEMBL1155139 (Antimicrob Agents Chemother, 2007)
Values after ≈ are worked out from the molar mass of the structure shown.

Experiments:
Plasmodium falciparum [1] = experiment: Antimalarial activity against Plasmodium falciparum NF54; assay type: functional, organism-based
Plasmodium berghei [2] = experiment: Antimalarial activity as reduced parasitaemia at day 3 against Plasmodium berghei infected MORO mice (Mus musculus) at 100 mg/kg peroral dose; assay type: functional; design: scale not given: the % may be the effect or the level left; conditions: route oral
Plasmodium berghei [3] = experiment: Antimalarial activity as reduced parasitaemia at day 3 against Plasmodium berghei infected MORO mice (Mus musculus) at 100 mg/kg subcutaneous dose; assay type: functional; design: scale not given: the % may be the effect or the level left
Plasmodium falciparum [4] = experiment: Antimalarial activity against Plasmodium falciparum K1; assay type: functional, organism-based
Plasmodium falciparum [5] = experiment: Antimalarial activity against Plasmodium falciparum FcB1; assay type: functional, organism-based; conditions: FcB1/Columbia

Structure (SMILES)	IC50 (Plasmodium falciparum [1]) [µg/mL]	Activity (Plasmodium berghei [2]) [%]	Activity (Plasmodium berghei [3]) [%]	IC50 (Plasmodium falciparum [4]) [µg/mL]	IC50 (Plasmodium falciparum [5]) [µg/mL]
C1CCCC2(CC1)OOC1(CCCCCC1)OO2	0.011 (≈ 0.0429 µM)	60	56	0.014 (≈ 0.0546 µM)	0.021 (≈ 0.0819 µM)
C1CCC2(CC1)COC1(CCCCC1)OC2	> 10	–	–	> 10	–
CCCCC1(CCCC)OOC(CCCC)(CCCC)OOC(CCCC)(CCCC)OO1	> 10	–	–	> 10	–
CCCC1(CCC)OOC(CCC)(CCC)OO1	0.023 (≈ 0.0883 µM)	21	0	0.04 (≈ 0.154 µM)	0.048 (≈ 0.184 µM)
CCCCC1(CCCC)OOC(CCCC)(CCCC)OO1	0.088 (≈ 0.278 µM)	47	5	0.071 (≈ 0.224 µM)	–
C[C@@H]1CC[C@H]2[C@@H](C)C(=O)O[C@@H]3O[C@@]4(C)CC[C@@H]1[C@]32OO4 [ARTEMISININ]	0.0034 (≈ 0.012 µM)	98	99.99	–	–
C[C@@H]1CCCCC12OOC1(CCCC[C@@H]1C)OO2 (stereo partly drawn) [WR-148999]	–	99.7	99.99	–	–
